The results in this text go back to PMC11675744, “Grape Pomace as a Source of Phenolics for the Inhibition of Starch Digestion Enzymes: A Comparative Study and Standardization of the Efficacy” (Foods, 2024).

This assay concerns the target T1, rat intestinal α-glucosidase.
T1 construct: gene Mgam; crude supernatant of rat intestinal acetone powder (Sigma N1377-5G), brush border enzymes, not purified
Description: p-nitrophenol release, absorbance […] nm, five-point dose-response. The format is biochemical. To be noted: substrate p-nitrophenyl α-D-glucoside (1 mM stock, 200 µL in 1 mL), phosphate pH 6.8, 37 °C, 5 min pre-incubation; crude extract.

For the molecule `C[C@H]1O[C@H](O[C@H]2[C@H](O)[C@@H](O)[C@@H](O[C@H]3[C@H](O)[C@@H](O)C(O)O[C@@H]3CO)O[C@@H]2CO)[C@H](O)[C@@H](O)[C@@H]1N[C@H]1C=C(CO)[C@@H](O)[C@H](O)[C@H]1O` (stereo partly shown) [acarbose], the I50 is 100 µg/mL.
